Laboratory results from US20230301981A1, “TLR7/8 ANTAGONISTS AND USES THEREOF” (Merck Patent GmbH, priority 2020, published 2023).
Read-outs that look alike come from different tables or passages of the source.

Assays:
TLR7 = target: T1, TLR7 (Homo sapiens, UniProt Q9NYK1); assay: HEK293 TLR7/NFKb reporter cell assay with R848 agonist; type: cell-based; parameters: expressed in transfected cells; host or cells: HEK293
T1 sequence (Q9NYK1 27-1049): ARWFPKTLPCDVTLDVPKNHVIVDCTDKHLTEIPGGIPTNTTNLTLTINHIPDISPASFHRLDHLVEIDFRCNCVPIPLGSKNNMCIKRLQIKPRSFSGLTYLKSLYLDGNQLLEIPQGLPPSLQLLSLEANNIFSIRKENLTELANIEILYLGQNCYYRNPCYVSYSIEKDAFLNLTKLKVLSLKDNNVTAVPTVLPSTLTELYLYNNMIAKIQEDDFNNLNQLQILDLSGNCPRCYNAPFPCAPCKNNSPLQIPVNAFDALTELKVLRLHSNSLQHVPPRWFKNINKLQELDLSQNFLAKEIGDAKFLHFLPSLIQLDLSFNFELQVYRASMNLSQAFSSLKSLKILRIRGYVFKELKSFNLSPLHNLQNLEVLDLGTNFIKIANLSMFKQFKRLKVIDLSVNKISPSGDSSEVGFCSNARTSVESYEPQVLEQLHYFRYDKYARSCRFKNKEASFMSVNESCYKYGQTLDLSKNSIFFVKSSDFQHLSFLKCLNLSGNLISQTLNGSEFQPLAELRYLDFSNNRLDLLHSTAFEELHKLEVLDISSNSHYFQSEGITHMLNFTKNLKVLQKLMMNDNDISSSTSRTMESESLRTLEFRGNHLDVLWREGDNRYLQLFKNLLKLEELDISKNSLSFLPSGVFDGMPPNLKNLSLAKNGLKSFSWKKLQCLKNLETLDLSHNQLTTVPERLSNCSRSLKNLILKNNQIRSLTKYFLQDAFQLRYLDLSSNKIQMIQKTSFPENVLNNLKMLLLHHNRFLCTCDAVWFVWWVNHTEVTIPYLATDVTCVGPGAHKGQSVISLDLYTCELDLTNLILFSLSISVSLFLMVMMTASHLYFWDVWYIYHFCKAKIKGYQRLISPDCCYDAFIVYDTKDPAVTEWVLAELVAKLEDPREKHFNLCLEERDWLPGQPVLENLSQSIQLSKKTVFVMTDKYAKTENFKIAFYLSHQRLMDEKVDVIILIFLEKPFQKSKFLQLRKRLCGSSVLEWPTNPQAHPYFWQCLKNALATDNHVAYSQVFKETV
Protocol: Into 384 CulturePlates (Corning 3707) was placed 5000 c/w of HEK293 TLR7/NFKb reporter cells in 30 µL DMEM without phenol red and 10% i.a. FCS and 2 mM L-glutamine. The cells were incubated for 24 h at 37° C., 10% carbon dioxide and 90% relative humidity. 3 µL of controls, standards, and compounds were dispensed to wells, incubated for 30 min then 3 µL of R848 agonist (Resiquimod) in 20 mM HEPES buffer was added. After incubation for 5 hours, it was allowed to stand at room temperature for 15 min. 10 µL of Steady-Glo substrate reagent was added and assay plates were shaken for 5 min at 1500 rpm. The assay plate was allowed to sit for 30 min at room temperature and then read on an EnVision plate reader.

[1] = system: complex primary human cell systems; assay: BioMAP Diversity PLUS phenotypic panel; type: cell-based; settings: hydroxychloroquine at 33 µM versus Pyronaridine at 3.3 µM
Protocol: Pyronaridine was profiled in the BioMAP® Diversity PLUS (BioSeek LLC, South San Francisco, CA) panel comprised of a well characterized set of complex primary human cell systems at 10, 3.3, 1.1, and 0.3 µM. Pyronaridine was tested across 12 BioMAP® Systems containing early passage primary human cells cultured alone or as cocultures and stimulated with various proinflammatory or immunomodulatory stimuli. […] A BioMAP activity profile was generated based on the levels of various readout parameters including cytokines or growth factors, expression of surface molecules, and cell proliferation. […]
Differentiating biomarkers are defined when one profile has a readout outside of the significance envelope with an effect size > 20% (|log10 ratio| > 0.1), and the readout for the other profile is either inside the envelope or in the opposite direction.

SMILES	IC50 (TLR7; Example 4 results table, assay/readout not specified, read-out: Potency)	IC50 (TLR7; HEK293 TLR7/NFKb reporter cells, R848 agonist, read-out: IC50 TLR7 (IL6 READOUT) HEK TRANSFECTED)	BioMAP Diversity PLUS profile, overlay comparison [1]
COc1ccc2nc3cc(Cl)ccc3c(Nc3cc(CN4CCCC4)c(O)c(CN4CCCC4)c3)c2n1 [Compound 1, Pyronaridine]	< 1 µM	5 µM	–
CCN(CCO)CCCC(C)Nc1ccnc2cc(Cl)ccc12 (stereo not drawn) [HYDROXY-CHLOROQUINE HCQ, hydroxychloroquine]	–	–	noticeable similar pattern
